The text below walks through data of patent US7700615B2, “Cell migration inhibiting compositions and methods and compositions for treating cancer” (Avolix Pharmaceuticals, Inc., priority 2002, dated 2010).

Test [1] relates to lung cancer cell line MV522. Description: Cell migration inhibition of lung cancer cells. Type of test: cell-based. The note with it: compared with untreated control sample. The method, then: (§1) The guided cell sedimentation apparatus may be used to deposit cells onto a substrate at predetermined locations. A manifold and a substrate as described above may be stored in autoclave bags and steam autoclaved for about 1 hour to sterilize the manifold. The manifold may then be stored at about 4° C. until testing is to be performed. FIG. 3 illustrates a top schematic view of substrate 14. Prior to deposition, the surface of substrate 14 onto which the cells will be deposited is treated according to the experiment to be performed. For example, about 20 μl of a surface coating may be added to each well and incubated for about 1 hour at about 37° C. Just prior to deposition of the cells, Teflon-defined wells 24 on the substrate are hydrated in a culture media appropriate for the cells under study. Approximately 50 μl of culture media is deposited onto each well. […]
(§2) Cell migration may be monitored over time by monitoring the location of individual cells over time or measuring the radius of a circle surrounding the cells over time. […] The peripheral cells are easily detected because the cells can be deposited as a confluent monolayer within a predetermined area. […] Alternatively, designations such as numbers can be assigned to individual cells such that cells may be counted or characterized within the deposited sample of cells. […]

In test [2] the test system is MDA-MB-231 breast cancer cells. In words: scid mouse human breast tumor model (tumor growth, survival). Type of test: in vivo, scid mice.
Protocol: Measuring the synergy of a combination of a chemical and a chemotherapeutic agent may also be performed by evaluating the growth inhibitory effects of a chemotherapeutic agent and a cell migration inhibitor in a severe combined immunodeficient (scid) mouse human tumor model. Such measurements include screening mice for immunoglobulin (Ig) production by an enzyme-linked immunosorbent assay (ELISA). A number of mice are injected with cancer cells in saline using a subcutaneous (SC) injection. Mice with established tumors are selected and stratified according to groups including: a control group, a group treated with a chemotherapeutic agent alone, a group treated with a cell migration inhibitor alone, and one or more groups treated with various combinations of the chemotherapeutic agent and the cell migration inhibitor. The groups designated to be treated with at least the chemotherapeutic agent are injected with the chemotherapeutic agent or the chemotherapeutic agent diluent by intraperitoneal (IP, within abdominal cavity) injection on the first day of treatment. […] Tumor growth may be measured about twice a week throughout the experiment, and the tumor volume may be estimated using the following formula: [(width)^2×length]/2. […]
The scid mouse human breast tumor model was used to evaluated cancer cells of the cell line MDA-MB-231 treated with various compositions. […]
In test [3] the test system is melanoma cancer cell line WM1791C. In words: Cell migration rate dose response, melanoma cancer cells. Type of test: cell-based. To be noted: concentration of 0.025 μM. The method, then: as §1, §2
In test [4] the test system is breast cancer cell line MDA-MB-231. In words: Cell migration rate dose response, breast cancer cells. Type of test: cell-based, human. To be noted: concentration of 2.00 μM. The method, then: as §1, §2
The subject of test [5] is normal fibroblasts. In words: Cell migration of normal fibroblasts. Type of test: cell-based. The note with it: compared with control sample of untreated cells. The method, then: (§3) The guided cell sedimentation apparatus may be used to deposit cells onto a substrate at predetermined locations. A manifold and a substrate as described above may be stored in autoclave bags and steam autoclaved for about 1 hour to sterilize the manifold. The manifold may then be stored at about 4° C. until testing is to be performed. FIG. 3 illustrates a top schematic view of substrate 14. Prior to deposition, the surface of substrate 14 onto which the cells will be deposited is treated according to the experiment to be performed. For example, about 20 μl of a surface coating may be added to each well and incubated for about 1 hour at about 37° C. Just prior to deposition of the cells, Teflon-defined wells 24 on the substrate are hydrated in a culture media appropriate for the cells under study. Approximately 50 μl of culture media is deposited onto each well. […] A small aliquot of the culture media (i.e., about 1 μl) is aspirated from each channel of the manifold to eliminate air bubbles within the channels.
The cells are harvested from a culture according to any method known in the art. The cell concentration is adjusted to about 2000 cells/μl. An appropriate cell concentration may vary depending on the cell type. The cells are deposited into each channel in a volume of about 1 μl. The number of cells deposited onto the substrate varies depending upon the physical characteristics of the cells under study. For example, about 500 to about 3000 cells are deposited in each location. The manifold, substrate, and cells should stand undisturbed for a period of time of, for example, about 30 minutes. During the time, the cells will sediment. Sedimentation is generally defined as a process in which gravity causes heavier objects in a suspension to settle to the lowest part of the system. As used herein, sedimentation refers to the process in which gravity causes cells to settle through a standing column of culture media that fills the channels in the manifold. Forces greater than gravity should be avoided to prevent damage of the cells.
The manifold, substrate, and cells are transferred to a controlled temperature and atmosphere tissue culture incubator for several hours to overnight to allow the cells to attach to the surface of the substrate. Appropriate conditions for the incubator are about 37° C., about […] (CO2), and humidified air. The cells sediment onto a defined location at the bottom of the channel. Therefore, when the manifold is removed from the substrate, the cells are deposited as discs 26 of cells at predetermined locations on the substrate, as shown in FIG. 3. Such sedimentation of cells may further include any other steps of the methods as described by Berens. After the cells are attached and the manifold has been removed, the cells in each well may be re-fed with an appropriate solution.
as §2

Test [6] relates to glioma cancer cell line SF 767. Description: Cell migration rate dose response, glioma cancer cells. Type of test: cell-based. The note with it: concentration of 2.00 μM. The procedure:
as §1, §2

Test [7] relates to HUVEC cells. In words: Angiogenesis inhibition: cell migration of HUVEC cells. Type of test: cell-based, Human. To be noted: compared with untreated control sample. The procedure: as §3
The cells are harvested from a culture according to any method known in the art. The cell concentration is adjusted to about 2000 cells/μl. An appropriate cell concentration may vary depending on the cell type. The cells are deposited into each channel in a volume of about 1 μl. The number of cells deposited onto the substrate varies depending upon the physical characteristics of the cells under study. For example, about 500 to about 3000 cells are deposited in each location. The manifold, substrate, and cells should stand undisturbed for a period of time of, for example, about 30 minutes. […]
as §2

Test [8] concerns pancreatic cancer cell line MiaPaCa-2. In words: Cell migration inhibition of pancreatic cancer cells. The note with it: compared with untreated control sample. The test is classed as cell-based. The procedure:
as §1, §2

Each structure is given as a SMILES string.

In the case of `Cc1ccc(C(=O)O)cc1[N+](=O)[O-]` [4-methyl-3-nitro-benzoic acid], the values for the cell migration rate entry in test [1], in test [3] and in test [4] were “markedly reduced migration”, “less than 50 μM/day” and “about 75 μm/day”, respectively. Also, the “% Survival after 100 days” value in test [2] (4-methyl-3-nitro-benzoic acid alone (30 mg/kg, IP qod×5)) is 0%. For the same molecule, the “cell migration rate of normal fibroblasts” value in test [5] is given as “essentially no effect”.

As for `CCCC1CCC(C2CCC(C(=O)O)CC2)CC1` (stereo not drawn) [4′-propyl-bicyclohexyl-4-carboxylic acid], the cell migration rate result in test [6] was “about 50 μm/day”. The “cell migration rate of normal fibroblasts” value in test [5] is “essentially no effect”.

For `COc1ccc(C2C(C(=O)c3ccc(Cl)cc3)N3c4ccccc4C=CC3C2(C#N)C#N)cc1OC` (stereo not drawn) [NS20494, 1-(4-chloro-benzoyl)-2-(3,4-dimethoxy-phenyl)-1,2-dihydro-3aH-pyrrolo[1,2-a]quinoline-3,3-dicarbonitrile], the cell migration rate result in test [7] and in test [8] was “markedly reduced migration” in each case. The “cell migration rate of normal fibroblasts” value in test [5] is recorded as “essentially no effect”.

Regarding `CC(=O)O[C@H]1C(=O)[C@@]2(C)[C@H]([C@H](OC(=O)c3ccccc3)[C@]3(O)C[C@H](OC(=O)[C@H](O)[C@@H](NC(=O)c4ccccc4)c4ccccc4)C(C)=C1C3(C)C)[C@]1(OC(C)=O)CO[C@@H]1C[C@@H]2O` [Taxol, paclitaxel, reference compound], the “% Survival after 100 days” value in test [2] (Taxol alone (10 mg/kg, IP qod×5)) amounted to 0%.

Regarding `N#Cc1c(NC(=O)c2cccc(I)c2)sc2c1CCCC2` [compound 301, N-(3-cyano-4,5,6,7-tetrahydro-benzo[b]thiophen-2-yl)-3-iodo-benzamide], in test [7], the cell migration rate result was “markedly reduced migration”. In addition, the “cell migration rate of normal fibroblasts” value in test [5] is “essentially no effect”.

`C1=C(c2ccc3c(c2)OCCO3)NN=C(Nc2ccccc2)S1` [compound 302, [5-(2,3-dihydro-benzo[1,4]dioxin-6-yl)-4H-[1,3,4]thiadiazin-2-yl]-phenyl-amine]: the cell migration rate result in test [7] is on record as “markedly reduced migration”. In test [5], the “cell migration rate of normal fibroblasts” value is reported as “essentially no effect”.
